Laboratory results published in patent publication US10626092B2, “Polymorphic forms of 3-[(2-butyl-1-(2-diethylamino-ethyl)-1H-benzoimidazol-5-yl]-N-hydroxy-acrylamide and uses thereof” (MEI PHARMA, INC., priority 2016, dated 2020).
Where a name gives a salt, the structure may show the parent alone.

Key:
Assay type in all cases: physicochemical
[1] = Long-term slurry conversion experiments; settings: drying the solids under vacuum; converts to 2.5 hydrate Form 3
Method: Approximately 30 mg of the specific form was dosed in a standard HPLC vial and aliquots of 100 μL of solvent until a suspension was formed. […] The solids were isolated from the mother liquor and analyzed by HT-XRPD after mild drying under ambient conditions (ambient) and after thorough drying under vacuum (vacuum). All the solids were exposed to accelerated ageing conditions (2 days at 40° C./70% RH) and re-analyzed by HT-XRPD.

[2] = Physical stability under accelerated aging conditions (40° C./70% RH), physical form re-determined by HT-XRPD; settings: physical stability under accelerated aging conditions (40° C./70% RH) for 48 hours
Method: Solids were analyzed for their physical stability under accelerated aging conditions (40° C./70% RH) for 48 hours. After the exposure, the physical form was determined again by HT-XRPD analysis. The physico-chemical characterization of the forms was done by TGMS analysis to determine the solvation state of the form and thermal events and by DSC analysis to confirm the thermal events observed in the SDTA signal of the TGA. (See Examples for details.)
Suspensions of 3-[2-butyl-1-(2-diethylamino-ethyl)-1H-benzoimidazol-5-yl]-N-hydroxy-acrylamide dihydrochloride monohydrate (Form 1) and 2.5 hydrate (Form 3) were prepared in 12 process relevant solvent systems. The suspensions were cycled between 5° C. and 50° C. followed by aging at 25° C. for 72 hours. […] Upon completion of the incubation time, the solids were collected, dried under ambient conditions and dried under deep vacuum before being analyzed by HT-XRPD. All the measured solids were exposed to accelerated ageing conditions (2 days at 40° C./70% RH) followed by re-analysis by HT-XRPD.
Long-term slurry conversion experiments were carried out by preparing suspensions of 3-[2-butyl-1-(2-diethylamino-ethyl)-1H-benzoimidazol-5-yl]-N-hydroxy-acrylamide dihydrochloride 2.5 hydrate (Form 3) and monohydrate (Form 1) in 12 different solvents and solvent mixtures. Approximately 30 mg of the specific form was dosed in a standard HPLC vial and aliquots of 100 μL of solvent until a suspension was formed. The suspensions were stirred for 2 weeks at room temperature and for 1 week at 50° C. The solids were isolated from the mother liquor and analyzed by HT-XRPD after mild drying under ambient conditions (ambient) and after thorough drying under vacuum (vacuum). All the solids were exposed to accelerated ageing conditions (2 days at 40° C./70% RH) and re-analyzed by HT-XRPD.
(§1) The competitive slurry experiments were performed in ethanol/water mixtures and methanol/water mixtures within a water activity range of 0-0.2. Approximately 50 mg of each pracinostat dihydrochloride solid form 2.5 hydrate and monohydrate were solid dosed in 1.8 mL HPLC vials. Aliquots of 100 μL of the different water mixtures were added until about half of the amount of solid was in solution. Subsequently, the vials were stirred for one week at 5° C., 21° C. and 50° C. Upon completion of the equilibration time, the solids were separated from the liquids by centrifugation. The solids were dried under ambient conditions (ambient) and dried under vacuum (vacuum) before HT-XRPD analysis. All solid samples were exposed to accelerated gaining conditions (40° C. and 70% RH) for two days (AAC). The water content in the liquid phase was determined Karl Fischer analysis.

[3] = Variable temperature XRPD; settings: 25° C. to 130° C.
Method: To investigate the phase interconversions upon temperature exposure, a variable temperature XRPD analysis on 3-[2-butyl-1-(2-diethylamino-ethyl)-1H-benzoimidazol-5-yl]-N-hydroxy-acrylamide dihydrochloride 2.5 hydrate was performed. The experiment was run between 25° C. to 130° C. with cooling back to 25° C. at the end. […] After reaching a temperature of 130° C., the material was cooled back to 25° C.
A variable temperature XRPD experiment with 3-[2-butyl-1-(2-diethylamino-ethyl)-1H-benzoimidazol-5-yl]-N-hydroxy-acrylamide dihydrochloride monohydrate was conducted to investigate the solid form conversion that occurred upon heating. The experiment was run between 25° C. to 143° C. followed by cooling to 25° C., reheating to 155° C. and then cooling again to 25° C. (see FIG. 19).
For variable humidity and temperature experiments the ANSYCO HT chamber was used, installed within the D8 Advance system diffractometer (Bruker) designed with Brag-Brentano geometry and equipped with LynxEye solid state detector. The radiation used for collecting the data was CuKα1 (λ=1.54056 Å) monochromatized by germanium crystal. The material was placed on a fixed sample holder that was mounted inside the chamber.
VT-XRPD: The temperature variation rate was 10° C./min and the equilibration time, prior to starting the data collection at each temperature, was 8 min. The patterns were collected in the range 4-41°2θ, with a step of 0.01573°2θ and measuring time per step of 1 sec. The data collection time, per temperature, was 40 min.

[4] = Moisture sorption study (DVS analysis); settings: for solid form recovered after DVS: HT-XRPD
Method: A moisture sorption study was performed to investigate the physical stability of 3-[2-butyl-1-(2-diethylamino-ethyl)-1H-benzoimidazol-5-yl]-N-hydroxy-acrylamide dihydrochloride 2.5 hydrate upon exposure to several relative humidity profiles. HT-XRPD analyses were performed on the solid material obtained after the DVS analyses. The analytical method is described herein.
Differences in hygroscopicity (moisture uptake) of the various forms of a solid material provided a measure of their relative stability at increasing relative humidity. Moisture sorption isotherms of small samples were obtained using a DVS-1 system from Surface Measurement Systems (London, UK); this instrument is suitable for use with as little as a few milligrams of sample, with an accuracy of 0.1 μg. Several humidity profile were applied as described in each individual experiment. Steps consisted of 10% RH. Weight equilibration per step was set with a minimum holding time of 1 hour (10% relative humidity step). At the end of the DVS experiments, the recovered solid material was measured by HT-XRPD.

Thermocycling studies = test: Thermocycling studies
Method: The suspensions were cycled between 5° C. and 50° C. followed by aging at 25° C. for 72 hours. […] Upon completion of the incubation time, the solids were collected, dried under ambient conditions and dried under deep vacuum before being analyzed by HT-XRPD. All the measured solids were exposed to accelerated ageing conditions (2 days at 40° C./70% RH) followed by re-analysis by HT-XRPD.

[5] = Desolvation studies: equilibration at 125° C. in high boiling point solvents; settings: two days; for Form in Ambient AAC: then accelerated aging conditions
Method: Using solvent equilibration of hydrates in high boiling point solvents has been reported as a method to obtaining desolvated forms. […] The experiments were started with approximately 50 mg of material and 100 μL of solvent. After equilibration, the solids were isolated from the solutions by centrifugation. The solids were allowed to dry under ambient conditions before HT-XRPD analysis was performed. The wet solids were analyzed by HT-XRPD immediately to avoid hydration under ambient conditions or under vacuum.

[6] = Moisture sorption study (DVS analysis); settings: DVS; hydrate
[7] = Competitive slurry conversion (thermodynamic stability) of Form 1 and Form 3; settings: ethanol/water, one week slurry
Method: as §1, with “Approximately 50 mg of each solid form were solid dosed in a standard HPLC vial followed by solvent addition. The competitive” for “The competitive”, “in solution. […] Upon completion” for “in solution. Subsequently, the vials were stirred for one week at 5° C., 21° C. and 50° C. Upon completion”

[8] = four sorption-desorption cycles 0-95-0% RH

CCCCc1nc2cc(/C=C/C(=O)NO)ccc2n1CCN(CC)CC [Form 2, 3-[2-butyl-1-(2-diethylamino-ethyl)-1H-benzoimidazol-5-yl]-N-hydroxy-acrylamide dihydrochloride trihydrate]
physical stability upon drying [1]: physically unstable
Stability ([2]; dihydrochloride trihydrate): Unstable

CCCCc1nc2cc(/C=C/C(=O)NO)ccc2n1CCN(CC)CC [Form 3, 3-[2-butyl-1-(2-diethylamino-ethyl)-1H-benzoimidazol-5-yl]-N-hydroxy-acrylamide dihydrochloride 2.5 hydrate]
temperature at which conversion to a new solid form was initially observed [3]: 60 °C
temperature at which conversion to the new solid form was completed [3]: 70 °C
temperature at which second conversion (to Form 5) was completed [3]: 110 °C
temperature at which second conversion (to Form 5) was observed [3]: 100 °C
solid form recovered after DVS ([4]; 0% RH for 18 hours): converted to a new solid form designated Form 6
hygroscopicity ([4]; DVS, hydrate): non-hygroscopic
gradual loss of water ([4]; constant 0% RH for 18 hours, in the first 5 hours): 8%
mass loss at 0% RH [4, 8]: about 2%
relative humidity below which the water is gradually lost [4, 8]: below 15 % RH
relative humidity values at which the form does not change [4, 8]: 25-95%
water loss between 5-0% RH ([4]; two sorption-desorption cycles 45-95-0-95-0-45% RH): about 2%
solid form recovered after DVS ([4]; two sorption-desorption cycles 45-95-0-95-0-45% RH, hydrate): 2.5 hydrate was recovered
solid form after thermocycling (Thermocycling studies; ethanol, absolute or extra dry, hydrate): converted to the monohydrate Form 1
solid form after thermocycling (Thermocycling studies; methanol, no water present): converts to the monohydrate Form 1
relative stability of the form (Thermocycling studies; thermocycling in ethanol/water mixtures): most stable form in a wide range of ethanol/water mixtures
relative stability of the form (Thermocycling studies; thermocycling in methanol/water mixtures): most stable form in a wide range of methanol/water mixtures
Stability ([2]; hydrate): Stable
Form in Ambient ([5]; Anisole): Mono
Form in Ambient AAC ([5]; Anisole): 2.5
Form in Ambient ([5]; Cumene): Mono
Form in Ambient AAC ([5]; Cumene, hydrate): 2.5 + Mono
Form in Ambient ([5]; N-Methyl-2-pyrrolidone, hydrate): Mono
Form in Ambient AAC ([5]; N-Methyl-2-pyrrolidone): 2.5
Form in Ambient ([5]; p-Xylene): Mono
Form in Ambient AAC ([5]; p-Xylene): 2.5
hygroscopicity [6]: not hygroscopic
water content of the solvent system at which the form is the most stable / obtained form ([7]; 5° C. (below ambient), hydrate): above 2%
water content of the solvent system at which the form is the most stable / obtained form ([7]; ambient conditions, hydrate): above 3%

CCCCc1nc2cc(/C=C/C(=O)NO)ccc2n1CCN(CC)CC [Form 4, 3-[2-butyl-1-(2-diethylamino-ethyl)-1H-benzoimidazol-5-yl]-N-hydroxy-acrylamide dihydrochloride 1.5 hydrate]
Stability ([2]; hydrate): Unstable

CCCCc1nc2cc(/C=C/C(=O)NO)ccc2n1CCN(CC)CC [Form 5, 3-[2-butyl-1-(2-diethylamino-ethyl)-1H-benzoimidazol-5-yl]-N-hydroxy-acrylamide dihydrochloride]
Stability ([2]; dihydrochloride): Unstable

CCCCc1nc2cc(/C=C/C(=O)NO)ccc2n1CCN(CC)CC [Form 9, 3-[2-butyl-1-(2-diethylamino-ethyl)-1H-benzoimidazol-5-yl]-N-hydroxy-acrylamide dihydrochloride anhydrous]
Stability [2]: Unstable
water content of the solvent system at which the form is the most stable form ([7]; 50° C. (elevated temperatures)): below 1.5%
water content of the solvent system at which the form is the most stable / obtained form ([7]; ambient conditions): below 2.5%

CCCCc1nc2cc(/C=C/C(=O)NO)ccc2n1CCN(CC)CC [Form 10, 3-[2-butyl-1-(2-diethylamino-ethyl)-1H-benzoimidazol-5-yl]-N-hydroxy-acrylamide dihydrochloride hemihydrate]
physical stability under ambient conditions ([4]; form appearing at 0% RH, converts to 2.5 hydrate (Form 3)): physically unstable
Stability ([2]; dihydrochloride hemihydrate): Unstable
